One may read the inhibition as the drop in the measured response relative to a control, in per cent. A low value points to little suppression. As a reminder, the GI50 is the concentration that inhibits growth by half. For orientation: IC50 means the concentration that gives 50% inhibition.

The test system of data set [1] is IL-6. The data set is described as follows: IL-6 in culture supernatants of NCIH 460 cells (ELISA). In kind it is cell-based, Human. The conditions noted are these: NCIH 460, 5 hours; for IC50: read-out: IL-6 Inhibition IC50. As for the experimental part: Human Lung Cancer cell line (NCIH 460) is used for IL-6 measurement. 5000 cells/well were seeded in a 96 well plate and incubated in CO2 incubator at 37° C. for 24 hours. After 24 hours of incubation the medium from all wells were completed removed and added 100 μl of fresh DMEM containing 10% FCS. 100 μl of different concentrations of the drug were added and incubated for 5 hours in CO2 incubator at 37° C. After 5 hours of incubation the supernatants were collected and stored at −80° C. The concentration of IL-6 in the supernatant was measured using ELISA kit and the IC50 value of the compound was determined from the dose response curve, (See Table II).

Data set [2] concerns HCT116 cells. The data set is described as follows: Anti-cancer screen (MTT), HCT116 cells. It is filed as cell-based. The conditions noted are these: Homo sapiens, HCT-116, HCT116, 48 hours, concentrations tested 0.01-100 μM. On the procedure:
(§1) Experimental drugs are screened for anti-cancer activity in three cell lines for their GI50, TGI and LC50 values (using five concentrations for each compound). The cell lines are maintained in DMEM containing 10% fetal bovine serum. 96 well micro titer plates are inoculated with cells in 100 μL for 24 hours at 37° C., 5% CO2, 95% air and 100% relative humidity. 5000 HCT116 cells/well, 5000 NCIH460 cells/well and 5000 U251 cells/well are plated. A separate plate with these cell lines is also inoculated to determine cell viability before the addition of the compounds (T0), (See Table I).
(§2) Following 24-hours incubation, experimental drugs are added to the 96 well plates. Each plate contains one of the above cell lines and the following in triplicate: five different concentrations (0.01, 0.1, 1, 10 and 100 μM) of four different compounds, appropriate dilutions of a cytotoxic standard and control (untreated) wells. Compounds are dissolved in DMSO to make 20 mM stock solutions on the day of drug addition and frozen at −20° C. Serial dilutions of these 20 mM stock solutions are made in complete growth medium such that 100 μL of these drug solutions in medium, of final concentrations equaling 0.01, 0.1, 1, 10 and 100 μM can be added to the cells in triplicate. Standard drugs whose anti-cancer activity has been well documented and which are regularly used are Doxorubicin and SAHA, (See Table I).
(§3) For T0 measurement, 24 hours after seeding the cells, 10 μL of 3-(4,5-Dimethyl-2-thiazolyl)-2,5-diphenyl-2H-tetrazolium (MTT) solution per well is added and incubation carried out for 3 hours at 37° C., 5% CO2, 95% air and 100% relative humidity, protected from light. Cells incubated with compounds for 48 hours are treated similarly except with the addition of 20 μL MTT solution per well and a subsequent incubation under the same conditions. After 3 hours of MTT incubation, well contents are aspirated carefully followed by addition of 150 μL DMSO per well. Plates are agitated to ensure solution of the formazan crystals in DMSO and absorbance read at 570 nm, (See Table I).
(§4) Percent growth is calculated for each compound's concentration relative to the control and zero measurement wells (T0; viability right before compound addition). If a test well's O.D. value is greater than the T0 measurement for that cell line % Growth=(test−zero)/(control−zero)×100

The test system of data set [3] is NCIH460, HCT116, MDAMB-231/U 251. The data set is described as follows: Anti-cancer screen, mean GI50 over the cell lines. In kind it is cell-based. On the procedure: as §1, §2, §3, §4
The subject of data set [4] is MDAMB-231/U 251. The data set is described as follows: Anti-cancer screen (MTT), MDAMB-231/U 251 cells. It is filed as cell-based. The conditions noted are these: MDAMB-231/U 251, 48 hours, concentrations tested 0.01-100 μM; for CC50: read-out: LC50 (the source's name). On the procedure:
as §1, §2, §3, §4

In data set [5] the test system is NCIH460 cells. The data set is described as follows: Anti-cancer screen (MTT), NCIH460 cells. In kind it is cell-based. The following applies: Homo sapiens, NCI-H460, NCIH460, 48 hours, concentrations tested 0.01-100 μM; for CC50: read-out: LC50 (the source's name). As for the experimental part: as §1, §2, §3, §4
The conditions of data set [6]: mouse, in vivo. On the procedure:
(§5) All test compound/standard drugs were delivered by gavage in a volume of 10 ml/kg. Drugs were administered every day for single time to a period of 21 days. Control mice were treated with the drug solvent/vehicle. Tumor size is measured every alternate days and body weight is recorded daily.
(§6) • a) Tumor Volume Inhibition (TVI): A TVI value higher than 80% is indicative of active compounds. • b) T/C % is also another indicator for the activity. A reproducible 20% T/C is considered as therapeutically active. • c) Log Cell Kill (LCK): A LCK value greater than 1 is indicative of active compounds. • d) Relative Tumor Volume (RTV), Tumor Delay and % Tumor volume change are also considered as valuable additional parameters for assessment. • e) Toxic effects of drug treatment were assessed by Body Weight Loss % • f) Lethal toxicity was defined as any death in treated groups occurring before any control death. Mice were inspected daily for mortality and toxic clinical signs.

Data set [7] relates to NCI H460 Xenograft. The data set is described as follows: In-vivo anti-cancer activity, NCI H460 xenograft model. Set-up: species or system SCID mice. The following applies: for in-vivo anti-cancer activity: NCI H460 Xenograft model, in words. On the procedure:
Experiments were carried out using 6-8 week old female athymic SCID (Severe Combined Immune Deficient) mice. The mice were kept in laminar flow rooms (housed in Individually Ventilated Cages) at constant temperature and humidity. They had free access to food and water. Tumors were obtained form ATCC and maintained by s.c. passages of tumor fragments (about 2×2×2 mm) in healthy mice according to standard reported procedures. Each experimental group included six/eight mice bearing bilateral tumors. Tumors were implanted on day 0, and tumor growth was followed by biweekly measurements of tumor diameters with a Vernier caliper. Tumor Volume (TV) was calculated according to the following formula: TV (mm^3)=d^2 XD/2, where d and D are the shortest diameter and the longest diameter of the tumor, respectively. The drug treatment started when tumors were just measurable (Mean TV=150-200 mm^3).
as §5, §6

The test system of data set [8] is pSTAT3. The data set is described as follows: pSTAT3 inhibition (Western blot in DU 145 / SKOV-3 cells; ELISA in HepG2 cells). It is filed as cell-based. The conditions noted are these: in words; FIGS. 1 and 2. On the procedure: Western blot analysis was performed as described by Kammer W et. al (J Biol Chem 271, 23634-23637, and J Biol Chem 273, 31222-31229). Briefly, 60 μg of whole cell extract was solubilized in Laemmeli buffer (50 mM Tris/HCl, pH 6.8, 2% SDS, 10% glycerol, 1 mM DTT, 1× Protease inhibitor cocktail, SET-3 (Calbiochem), 1 mM Sodium Ortho-vanadate) boiled for 5-10 minutes, and separated on a 10 or 12% acrylamide SDS gel. After protein transfer, the nitrocellulose membranes were blocked in blocking buffer for 2 hour (1×TBS, 0.1% Tween-20, 5% BSA). Membranes were incubated for 20 hours in blocking buffer containing, STAT3 P-Tyr705 (Santa Cruz Biotech), STAT3 (H-190, Santa Cruz Biotech) and Actin (C-2, Santa Cruz Biotech) antibody at 1:300 dilution. Detection was performed with HRP conjugated antimouse/antirabbit IgG (Santa Cruz Biotech) at a dilution of 1:3,000 for 1 hour. Visualization was performed using an Enhanced Chemiluminescence detection kit (Amersham). See Appended Diagrams: FIGS. 1 and 2. […]
Capture Antibody was diluted to a working concentration of 2.0 μg/mL in PBS. […] The plates were made ready after 2-3 washes with wash buffer. […] The reaction was stopped by adding 50 μl of stop solution to each well and the OD was determined using a microplate reader at 450 nm.
(In general: Immunoblotting shows a protein as a band on a membrane.)

The test system of data set [9] is Jak2/Stat3 signaling. The following applies: literature (Burdelya et al., 2002; Meydan et al., 1996; Constantin et al., 1998); cited from earlier work.

Molecules are shown by their SMILES. “Also recorded” adds a separate entry of the source.

Take `O=C(c1ccc([N+](=O)[O-])o1)N1CCN(CC(O)COc2cccc3[nH]c4ccccc4c23)CC1` (stereo not shown) [Example 35, 1-(9H-carbazol-4-yloxy)-3-{4-(5-nitro-2-furoyl)piperazin-1-yl}propan-2-ol]: in data set [1] (Homo sapiens, NCI-H460), the inhibition at 1 µM stood at 45% and the inhibition at 10 µM is 80.4%. In data set [2], the GI50 amounted to 6 µM, the IC (TGI) is 42 µM and the LC50 (concentration for 50% net cell kill relative to T0) is 85 µM. For the same molecule, in data set [3], the GI50 is 3.27 µM. Further, in data set [4], growth was halved (GI50) at 3 µM, the IC (TGI) was over 100 µM and the CC50 is over 100 µM. For the same molecule, in data set [5], the GI50 is 0.8 µM, the IC (TGI) came to 7.5 µM and the CC50 came out at 60 µM.

With `COc1ccc(CNC[C@@H](O)COc2cccc3[nH]c4ccccc4c23)c(OC)c1` [Example 24, (2R)-1-(9H-carbazol-4-yloxy)-3-[(2,4-dimethoxy-benzyl)amino]propan-2-ol], the “IL-6 Inhibition IC50 (μM)” value in data set [1] was “No activity”. In data set [2], this molecule came in with a GI50 of 8.3 µM, an IC (TGI) of 53 µM and an LC50 (concentration for 50% net cell kill relative to T0) of 80 µM. For the same molecule, the body weight loss result in data set [6] is listed as “no body weight loss was observed”. In addition, halving of growth in data set [3] (GI50) required 9 µM. Besides, in data set [7], the in-vivo anti-cancer activity result is “good anti-cancer activity”. In [4], halving of growth (GI50) required 18 µM, the IC (TGI) stood at 51 µM and the CC50 was 79 µM. In data set [5], the GI50 turned out to be 0.76 µM, the IC (TGI) was determined as 53 µM and the CC50 was 67 µM.

For `OC(CNCc1ccccc1)COc1cccc2[nH]c3ccccc3c12` (stereo not shown) [Example 23, 1-(9H-carbazol-4-yloxy)-3-benzylaminopropan-2-ol], in [1] (Homo sapiens, NCI-H460), 10 µM produced 29.3% inhibition and the IC50 came to 24 µM. Besides, in data set [2], the GI50 was 18 µM, the IC (TGI) stood at 47 µM and the LC50 (concentration for 50% net cell kill relative to T0) amounted to 77 µM. The same molecule registered a GI50 in data set [3] of 6.6 µM. In data set [4], the GI50 is 1 µM, the IC (TGI) is 10 µM and the CC50 was determined as 65 µM. In addition, in [5], halving of growth (GI50) required 0.79 µM, the IC (TGI) was 35 µM and the CC50 stood at 70 µM.

Take `COc1ccc(CNCC(O)COc2cccc3[nH]c4ccccc4c23)c(OC)c1` (racemic) [Example 1, 1-(9H-carbazol-4-yloxy)-3-[(2,4-dimethoxybenzyl)amino]propan-2-ol]: the inhibition at 0.1 µM in [1] (Homo sapiens, NCI-H460, 0.1 μM) was determined as 45.7%. Besides, in data set [1] (Homo sapiens, NCI-H460), the inhibition at 1 µM is 55.3% and the IC50 came to 5 µM. In [2], the GI50 was 8.5 µM, the IC (TGI) amounted to 39 µM and the LC50 (concentration for 50% net cell kill relative to T0) worked out at 79 µM. Besides, the GI50 in [3] stood at 4.8 µM. In data set [7], the in-vivo anti-cancer activity result is listed as “good in-vivo anti-cancer activity”. In data set [7] (SCID mice, gavage, every day for 21 days), the “inhibition against NCI H460 Xenograft model” value is on record as 52%. Further, in data set [4], the GI50 was determined as 5 µM, the IC (TGI) came out at 9.8 µM and the CC50 was determined as 60 µM. Further, the pSTAT3 inhibition entry in [8] is listed as “work through pSTAT3 inhibition; also recorded: mechanism of action was through pSTAT3 inhibition”. Moreover, in [5], growth was halved (GI50) at 0.78 µM, the IC (TGI) was found to be 18 µM and the CC50 was 62 µM.

Take `N#C/C(=C/c1ccc(O)c(O)c1)C(=O)NCc1ccccc1` [AG490]: the “concentration needed to show Jak/Stat3 signaling inhibition and anti-tumor activity” value in data set [9] was 50 to 100 µM.

`OC(COc1cccc2[nH]c3ccccc3c12)CN1CCN(Cc2ccc(F)c(F)c2)CC1` (stereo not shown) [Example 31, 1-(9H-carbazol-4-yloxy)-3-[4-(3,4-difluorobenzyl)piperazin-1-yl]propan-2-ol]: the GI50 stood at 38 µM in data set [2], 25.7 µM in [3], 4 µM in data set [4] and 35 µM in data set [5]. For the same molecule, the IC (TGI) in [2] turned out to be 66 µM; in data set [4] it was 7 µM; in data set [5], 90 µM. The same molecule returned an LC50 (concentration for 50% net cell kill relative to T0) in data set [2] of 92 µM. Further, the CC50 in [4] was found to be 10 µM; in [5], 65 µM.

The values above are taken from patent US7786142B2, “Heterocyclic compounds as pSTAT3/IL-6 inhibitors” (Orchid Research Laboratories, Ltd., priority 2005, dated 2010).
